Laboratory results from PMC10447463, “Data-mining unveils structure–property–activity correlation of viral infectivity enhancing self-assembling peptides” (Nature Communications, 2023).
Read-outs that look alike come from different tables or passages of the source.

Legend:
[1] = system: HIV-1 infection of TZM-bl cells; assay: HIV-1 infectivity enhancement assay, β-galactosidase luminescence; type: cell-based; details: for Rel-EFC / Log10 Infection Rel EFC: 1.3 µM peptide; for Rel-EFC: infection relative to EF-C (QCKIKQIINMWQ = 1); for Log10 Infection Rel EFC: log10 of infection relative to EF-C; for Log Infectivity: Log10 infection relative to EF-C, TZM-bl cells, asymmetric std dev errors; for Log10 Infection Rel EF-C: HIV-1 infection of TZM-bl cells; for Log10 of Rel to EFC (Feb2021): Log10 of infection relative to EF-C; for Abs. Inf.: absolute infection signal, HIV-1 on TZM-bl cells, β-galactosidase luminescence; for Log10 Inf. rel. to EF-C: log10 of HIV-1 infection of TZM-bl cells relative to EF-C (EF-C = 0)
[2] = type: physicochemical; parameters: key to Fibril / Fibril Formation / TEM 2cat / Fibril: 1 = fibrils present; 0 non-fibrillar structures; details: for Fibril / Fibril Formation: 1 mg/mL, uranyl acetate stain, qualitative
[3] = Turbidity, derived count rate of scattered light; type: physicochemical; details: for Count Rate / kcps: derived count rate of scattered light at 633 nm, 173°, from zeta-potential measurement, 0.1 mg/mL in 1 mM KCl after 1 d at 1 mg/mL in PBS, turbidity / microscopic aggregation, mean of triplicate
Procedure, shortened: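 Samples: 1 mg/mL in PBS pH 7.4 (from DMSO), 1 d at RT, then diluted in 1 mM KCl immediately before measurement. Triplicates, two independent runs averaged.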

[4] = Fig. S7 panel A (plotted against β-sheet content)
[5] = Log10 of infection rate relative to EF-C, Figure 3A source data
[6] = infection rate relative to EF-C, log10, data of Figure 2D
[7] = infection rate relative to EF-C, log10, source data of Figure 2C
[8] = TEM, 1 = fibrils present, 0 = non-fibrillar
[9] = TEM, 1 = fibrils present, 0 = non-fibrillar structures
[10] = category: fibrils present or non-fibrillar
[11] = Log10 of derived count rate of scattered light (turbidity)
[12] = log10 of derived count rate of scattered light (turbidity)
[13] = turbidity, Log10 of derived count rate of scattered light, Figure 3A source data
[14] = FigS12 panel A, fibril category by TEM
[15] = turbidity, log10 of derived count rate of scattered light
[16] = Fig. S7 panel B (plotted against CR), rounded to two decimals
[17] = logarithm of count rate in kcps

Substance | Rel-EFC [1] | Log10 Infection Rel EFC [1] | Log Infectivity [1, 4] | Log10 Infection Rel EF-C [1, 5] | Log10 Infection Rel EF-C [1, 6] | Log10 Infection Rel EF-C [1, 7] | Log10 of Rel to EFC (Feb2021) ([1]; all peptides of FigS16) | TEM 2cat ([2]; Fig S10 panel D) | Fibril / Fibril Formation ([2]; TEM) | Fibril [2, 8] | Fibril [2, 9] | TEM 2cat [2, 10] | Log10 Count Rate [3, 11] | Count Rate / kcps [3] [kcps] | Log10 Count Rate [3, 13] | Abs. Inf. [1] | Log10 Inf. rel. to EF-C [1] | TEM 2cat [2, 14] | Fibril ([2]; FigS12 panel B, TEM) | Log10 Count Rate [3, 15] | also measured
CKFKFQFNMW | 0,96 | -0,02 | -0.01766 | -0.02 | -0.01766 | -0.01766 | -0.02 | 1 | 1 | 1 | 1 | 1 | 3.613 | 4107 | 3.613 | – | – | – | – | – | Log10 Count Rate [3, 12]: 3.613
QCKAKAQA | 0,03 | -1,6 | -1.598 | -1.6 | -1.598 | -1.598 | – | 0 | 0 | 0 | 0 | – | 3.12 | 1319 | 3.12 | 806.7 | -1.598 | 0 | 0 | 3.12 | –
QCKIKIQINMWQ | 1,04 | 0,02 | 0.01546 | 0.02 | 0.01546 | 0.01546 | 0.02 | 1 | 1 | 1 | 1 | 1 | 3.918 | 8271 | 3.918 | 21221.11111 | 0.01546 | – | – | 3.918 | Log Infectivity [1, 16]: 0.02; Fibril ([2]; Fig S10 panel E): 1; Count Rate ([3]; T0, mean of n = 3): 9558.2 kcps; Count Rate ([3]; T2m, mean of n = 3): 6927 kcps; Log10 Count Rate [3, 17]: 3.918
KYKYQY | 0,01 | -1,99 | -1.9887 | -1.99 | -1.9887 | -1.9887 | – | 0 | 0 | 0 | 0 | – | 1.499 | 32 | 1.499 | – | – | 0 | 0 | – | Log10 Count Rate [3, 12]: 1.499
KIKIKIKIYYYY | 1,38 | 0,14 | 0.1402 | 0.14 | 0.1402 | 0.1402 | 0.14 | 0 | 0 | 0 | 0 | 0 | 3.996 | 9918 | 3.996 | – | 0.1402 | – | – | 3.996 | Log10 of Rel to EFC (Feb2021) ([1]; second listing, peptides with TEM 2cat 0): 0.14; Zeta Count Rate ([3]; peptides with TEM 2cat 0): 9918 kcp
MKFKFQF | 0,06 | -1,2 | -1.196 | -1.2 | -1.196 | -1.196 | – | 1 | 1 | 1 | 1 | – | 2.0933 | 124 | 2.0933 | 1427 | -1.196 | 1 | 1 | 2.0933 | Log Infectivity [1, 16]: -1.2; Fibril ([2]; Fig S10 panel E): 1
KIKQIINMWQ | 0,35 | -0,46 | -0.4604 | -0.46 | -0.4604 | -0.4604 | -0.46 | 1 | 1 | 1 | 1 | 1 | 2.789 | 616 | 2.789 | 9363 | -0.4604 | – | – | 2.789 | Log Infectivity [1, 16]: -0.46; Fibril ([2]; Fig S10 panel E): 1; Log10 Count Rate [3, 17]: 2.789
KNDKND | 0,01 | -1,98 | -1.978 | -1.98 | -1.978 | -1.978 | – | 0 | 0 | 0 | 0 | – | 1.719 | 52 | 1.719 | 230 | -1.978 | 0 | 0 | 1.719 | –
QCKIKIQI | 0,11 | -0,95 | -0.9508 | -0.95 | -0.9508 | -0.9508 | -0.95 | 1 | 1 | 1 | 1 | 1 | 4.094 | 12427 | 4.094 | 3577 | -0.9508 | – | – | 4.094 | –
